In one data set the test system is HCV replicon. As to the kind of experiment: HCV replicon assay (Clone A cells and ET-lunet cells, HCV RNA by real time PCR). Particulars: for EC90: read-out: EC90, anti-HCV 1b activity. The format is cell-based, hepatitis C virus. The method, then: HCV replicon assay. HCV replicon assays using Clone A cells and ET-lunet cells were performed as described previously. L. J. Stuyver et al. Antimicrob. Agents Chemother. 2004, 48, 651-654. Briefly, Clone A cells and ET-lunet cells were seeded at a density of 1500 and 3000 cells per well in a 96-well plate, respectively. Test compounds serially diluted in culture medium without G418 were added to cells. Plates were incubated at 37° C. in a 5% CO2 atmosphere for 4 days. Inhibition of HCV RNA replication was determined by quantitative real time PCR. See, e.g., L. J. Stuyver et al. Antiviral Chem. Chemother. 2006, 17, 79-87.
To express the antiviral effectiveness of a compound, the threshold RT-PCR cycle of the test compound was subtracted from the average threshold RT-PCR cycle of the no-drug control (ΔCtHCV). A ΔCt of 3.3 equals a 1-log 10 reduction (equal to the 90% effective concentration [EC90]) in replicon RNA levels. The cytotoxicity of the test compound could also be expressed by calculating the ΔCtrRNA values. The ΔΔCt specificity parameter could then be introduced (ΔCtHCV-ΔCtrRNA), in which the levels of HCV RNA are normalized for the rRNA levels and calibrated against the no-drug control.
A general note: In antiviral work, replicon cells carry a viral genome segment that copies itself.

Data set [1] has as its system Dengue 2 strain New Guinea C. Description: Dengue CPE assay. It counts as cell-based, Dengue virus 2. Particulars: Table 6, BHK-21 cells, 3 days, 50% cells surviving, read-out: EC50, activity against dengue virus. The method, then: Dengue CPE Assay. To measure cytopathic effect of Dengue virus 2, BHK-21 ([…], CCL-10 ATCC Manassas, Va.) cells were seeded at a density of 20,000 cells/well in a 96-well black/clear bottom plates (Becton Dickinson, Franklin Lakes, N.J.) one day prior to start of the assay and allowed to attach overnight in EMEM (ATCC Manassas, Va.) +10% FBS (Invitrogen, Carlsbad, Calif.) at 37° C. in a humidified 5% CO2 atmosphere. The next day, the medium was removed and the cells were infected with Dengue 2 strain New Guinea C (VR-1584, ATCC Manassas, Va.) at an MOI of 0.08 pfu/cell for two hours in 50 μL EMEM+2% FBS. For both the single point and dose response assays, compounds (2× concentration) were diluted in EMEM+2% FBS and 50 μL was added to infected cells without removing virus. Cells were incubated for 3 days at 37° C. in a humidified 5% CO2 atmosphere. The medium was aspirated and 50 μL of CellTiter-Glo (Promega, Madison, Wis.) was added to each well and read for 0.1 seconds on a Perkin Elmer Victor3 (Waltham, Mass.) plate reader. Percent survival was determined by subtracting the average value of infected control wells and normalizing to the non-infected wells. The effective concentration was calculated from the dose response data by forecasting 50% cells surviving with drug treatment.

Data set [2] is described as follows: Cytotoxicity reported with the dengue assay. The conditions noted are these: Table 6; cell line not stated. The format is cell-based.
Data set [3] can be described thus: Cell cytotoxicity assay (MTS). The format is cell-based. Particulars: human. The method, then: Cell cytotoxicity assays. Each compound (serially diluted from 100 μM) was added to Huh7 (2×10^3 cells/well), HepG2 (2×10^3 cells/well), BxPC3 (2×10^3 cells/well), or CEM (5×10^3 cells/well) cells and allowed to incubate for 8 days at 37° C. A medium only control was used to determine the minimum absorbance value […]. At the end of the growth period, MTS dye from the CellTiter 96 Aqueous One Solution Cell Proliferation Assay kit (Promega) was added to each well and the plate was incubated for an additional 2 hours. The absorbance at 490 nm was read with a Victor3 plate reader (Perkin Elmer) using the medium only control wells as blanks. The 50% inhibition value (CC50) was determined by comparing the absorbance in wells containing cells and test compound to untreated cell control wells.

The mark [4] stands for this setting: Hepatitis C virus, 96 h, Table 1, HCV replicon, 4 days, read-out: EC50, anti-HCV activity of selected nucleosides.
[5] abbreviates: Hepatitis C virus, Table 2, HCV 1b replicon, unit inferred, read-out: EC50, anti-HCV 1b activity.
Setting [6] is: Hepatitis C virus, 96 h, Table 4, cyclic phosphates, diastereomeric mixtures, read-out: EC50, anti-HCV 1b activity.
[7] abbreviates: Hepatitis C virus, 96 h, Table 4, cyclic phosphates, diastereomeric mixtures.

Results on 22 compounds are retold here after patent US9394331B2, “2′-spiro-nucleosides and derivatives thereof useful for treating hepatitis C virus and dengue virus infections” (priority 2010, dated 2016).

The structures appear in SMILES notation. Like-named read-outs stand apart in the source and are kept apart here.

With `O=c1ccn([C@@H]2O[C@H](CO)[C@@H](O)[C@@]23CCCO3)c(=O)[nH]1` [compound 32, 1-((5 S,6R,8R,9R)-9-hydroxy-8-(hydroxymethyl)-1,7-dioxaspiro[4.4]nonan-6-yl)pyrimidine-2,4(1H,3H)-dione], the EC50 (in general, the concentration at which the effect is half-maximal) with HCV replicon (setting [4]) was greater than 100 µM.
On the same count and under the same terms, in the case of `O=c1ccn([C@@H]2O[C@H](CO)[C@@H](O)[C@@]23CCO3)c(=O)[nH]1` [compound 36, 1-((4S,5R,7R,8R)-8-hydroxy-7-(hydroxymethyl)-1,6-dioxaspiro[3.4]octan-5-yl)pyrimidine-2,4(1H,3H)-dione] it was greater than 100 µM.
On to `O=c1ccn([C@@H]2O[C@H](CO)[C@@H](O)[C@]23CCCO3)c(=O)[nH]1` [compound 44, 1-((5R,6R,8R,9R)-9-hydroxy-8-(hydroxymethyl)-1,7-dioxaspiro[4.4]nonan-6-yl)pyrimidine-2,4(1H,3H)-dione], for which the EC50 with HCV replicon (setting [4]) is greater than 100 µM.
The same measure, in the same setting: in the case of `O=c1ccn([C@@H]2O[C@H](CO)[C@@H](O)[C@]23CCO3)c(=O)[nH]1` [compound 48, 1-((4R,5R,7R,8R)-8-hydroxy-7-(hydroxymethyl)-1,6-dioxaspiro[3.4]octan-5-yl)pyrimidine-2,4(1H,3H)-dione] it was greater than 100 µM; in that of `Nc1ccn([C@@H]2O[C@H](CO)[C@@H](O)[C@]23CCCO3)c(=O)n1` [compound 49, 4-amino-1-((5R,6R,8R,9R)-9-hydroxy-8-(hydroxymethyl)-1,7-dioxaspiro[4.4]nonan-6-yl)pyrimidin-2(1H)-one], greater than 100 µM.
Same read-out and setting: in the case of `Nc1ccn([C@@H]2O[C@H](CO)[C@@H](O)[C@@]23CCCO3)c(=O)n1` [compound 50, 4-amino-1-((5S,6R,8R,9R)-9-hydroxy-8-(hydroxymethyl)-1,7-dioxaspiro[4.4]nonan-6-yl)pyrimidin-2(1H)-one] it was greater than 100 µM.
Still for that read-out and setting: in the case of `Nc1ccn([C@@H]2O[C@H](CO)[C@@H](O)[C@@]23CCO3)c(=O)n1` [compound 51, 4-amino-1-((4S,5R,7R,8R)-8-hydroxy-7-(hydroxymethyl)-1,6-dioxaspiro[3.4]octan-5-yl)pyrimidin-2(1H)-one] it was greater than 100 µM; in that of `Nc1ccn([C@@H]2O[C@H](CO)[C@@H](O)[C@]23CCO3)c(=O)n1` [compound 52, 4-amino-1-((4R,5R,7R,8R)-8-hydroxy-7-(hydroxymethyl)-1,6-dioxaspiro[3.4]octan-5-yl)pyrimidin-2(1H)-one], greater than 54.5 µM.
Regarding `COc1nc(N)nc2c1ncn2[C@@H]1O[C@H](CO)[C@@H](O)[C@@]12CCCO2` [compound 62, (5S,6R,8R,9R)-6-(2-amino-6-methoxy-9H-purin-9-yl)-8-(hydroxymethyl)-1,7-dioxaspiro[4.4]nonan-9-ol], in the data set with HCV replicon (setting [4]), the EC50 was greater than 20 µM.
Same read-out and setting: in the case of `COc1nc(N)nc2c1ncn2[C@@H]1O[C@H](CO)[C@@H](O)[C@@]12CCO2` [compound 66, (4S,5R,7R,8R)-5-(2-amino-6-methoxy-9H-purin-9-yl)-7-(hydroxymethyl)-1,6-dioxaspiro[3.4]octan-8-ol] it was greater than 20 µM; in that of `COc1nc(N)nc2c1ncn2[C@@H]1O[C@H](CO)[C@@H](O)[C@]12CCCO2` [compound 72, (5R,6R,8R,9R)-6-(2-amino-6-methoxy-9H-purin-9-yl)-8-(hydroxymethyl)-1,7-dioxaspiro[4.4]nonan-9-ol], greater than 20 µM; in that of `COc1nc(N)nc2c1ncn2[C@@H]1O[C@H](CO)[C@@H](O)[C@]12CCO2` [compound 76, (4R,5R,7R,8R)-5-(2-amino-6-methoxy-9H-purin-9-yl)-7-(hydroxymethyl)-1,6-dioxaspiro[3.4]octan-8-ol], greater than 100 µM.
On the same count and under the same terms, in the case of `Nc1nc2c(ncn2[C@@H]2O[C@H](CO)[C@@H](O)[C@]23CCO3)c(=O)[nH]1` [compound 77, 2-amino-9-((4R,5R,7R,8R)-8-hydroxy-7-(hydroxymethyl)-1,6-dioxaspiro[3.4]octan-5-yl)-1H-purin-6(9H)-one] it was greater than 20 µM.
`COC(=O)[C@H](C)NP(=O)(OC[C@H]1O[C@@H](n2cnc3c(OC)nc(N)nc32)[C@@]2(CCO2)[C@@H]1O)Oc1ccccc1` (stereo partly drawn) [compound 113, (2S)-methyl 2-(((((4R,5R,7R,8R)-5-(2-amino-6-methoxy-9H-purin-9-yl)-8-hydroxy-1,6-dioxaspiro[3.4]octan-7-yl)methoxy)(phenoxy)phosphoryl)amino)propanoate]: the EC50 was 1.55 µM in the data set on HCV replicon (setting [5]) and 6.23 µM in data set [1] (Dengue virus, BHK-21, 72 h). Moreover, in data set [2], the CC50 (usually the concentration that lowers cell viability or growth by half) was greater than 20 µM.
Turning to `COC(=O)[C@H](C)NP(=O)(OC[C@H]1O[C@@H](n2ccc(=O)[nH]c2=O)[C@]2(CCCO2)[C@@H]1O)Oc1ccccc1` (stereo partly drawn) [compound 114, (2S)-methyl 2-(((((5S,6R,8R,9R)-6-(2,4-dioxo-3,4-dihydropyrimidin-1 (2H)-yl)-9-hydroxy-1,7-dioxaspiro[4.4]nonan-8-yl)methoxy)(phenoxy)phosphoryl)amino)propanoate], in the data set with HCV replicon (setting [5]), the EC50 was determined as 20.6 µM.
On the same count and under the same terms, next, `COC(=O)[C@H](C)NP(=O)(OC[C@H]1O[C@@H](n2ccc(=O)[nH]c2=O)[C@]2(CCO2)[C@@H]1O)Oc1ccccc1` (stereo partly drawn) [compound 115, (2S)-methyl 2-(((((4S,5R,7R,8R)-5-(2,4-dioxo-3,4-dihydropyrimidin-1 (2H)-yl)-8-hydroxy-1,6-dioxaspiro[3.4]octan-7-yl)methoxy)(phenoxy)phosphoryl)amino)propanoate]: 28.5 µM; `COC(=O)[C@H](C)NP(=O)(OC[C@H]1O[C@@H](n2ccc(=O)[nH]c2=O)[C@@]2(CCCO2)[C@@H]1O)Oc1ccccc1` (stereo partly drawn) [compound 116, (2S)-methyl 2-(((((5R,6R,8R,9R)-6-(2,4-dioxo-3,4-dihydropyrimidin-1 (2H)-yl)-9-hydroxy-1,7-dioxaspiro[4.4]nonan-8-yl)methoxy)(phenoxy)phosphoryl)amino)propanoate]: 28.3 µM.
On the same count and under the same terms, next, `COC(=O)[C@H](C)NP(=O)(OC[C@H]1O[C@@H](n2ccc(=O)[nH]c2=O)[C@@]2(CCO2)[C@@H]1O)Oc1ccccc1` (stereo partly drawn) [compound 117, (2S)-methyl 2-(((((4R,5R,7R,8R)-5-(2,4-dioxo-3,4-dihydropyrimidin-1 (2H)-yl)-8-hydroxy-1,6-dioxaspiro[3.4]octan-7-yl)methoxy)(phenoxy)phosphoryl)amino)propanoate]: 16.7 µM.
In the case of `COc1nc(N)nc2c1ncn2C1OC(COP(=O)(N[C@@H](C)C(=O)OC(C)C)Oc2ccccc2)[C@@H](O)[C@]12CCO2` (stereo partly shown) [compound 118], the EC50 with HCV replicon (Table 3, HCV 1b replicon, read-out: EC50, anti-HCV 1b activity) was 1.49 µM; in data set [1] it was 5.06 µM. In addition, in the data set on HCV replicon (Table 3, HCV 1b replicon), the EC90 (as a rule, the point of the concentration-response curve where the effect stands at 90%) is 3.44 µM. The CC50 at 8 days in data set [3] (Table 3, cell line not stated, read-out: CC50) is greater than 20 µM. Moreover, the CC50 in data set [2] was greater than 20 µM.
For the compound `COc1nc(N)nc2c1ncn2C1OC2COP(=O)(OCC(C)(C)C)O[C@H]2[C@]12CCO2` (stereo partly shown) [compound 132], in the data set on HCV replicon (setting [6]), the 50% effective concentration (EC50) is greater than 20 µM. Further, the EC90 with HCV replicon (setting [7]) is greater than 20 µM. The CC50 at 8 days in data set [3] was greater than 20 µM.
Take `COc1nc(N)nc2c1ncn2C1OC2COP(=O)(OC(C)C)O[C@H]2[C@]12CCO2` (stereo partly shown) [compound 133]: in the data set on HCV replicon (setting [6]), the EC50 is greater than 20 µM. For the same compound, the EC90 in the data set on HCV replicon (setting [7]) is greater than 20 µM. The half-maximal cytotoxic concentration (CC50) at 8 days in data set [3] is greater than 20 µM.
As to `COc1nc(N)nc2c1ncn2C1OC2COP(=O)(OC3CCCC3)O[C@H]2[C@]12CCO2` (stereo partly shown) [compound 134], the EC90 in the data set with HCV replicon (setting [7]) is greater than 20 µM. Also, the EC50 with HCV replicon (Hepatitis C virus, Table 4, cyclic phosphates, diastereomeric mixtures, read-out: EC50, anti-HCV 1b activity) was 14 µM. For the same compound, the CC50 at 8 days in data set [3] was greater than 20 µM.
